From patent US11931424B2, “Combination MCL-1 inhibitors with anti-body drug conjugates” (Gilead Sciences, Inc., priority 2021, dated 2024)

Tested on: panel of breast cancer cell lines
Assay: Compound A with targeted agents and chemotherapies, 72-hour in vitro proliferation assays
Type: cell-based
Conditions: 72-hour proliferation
[1] = AU565 cell line, compound A × partner
[2] = BT-20 cell line, compound A × partner
[3] = BT-474 cell line, compound A × partner
[4] = BT-549 cell line, compound A × partner
[5] = CAL-51 cell line, compound A × partner
[6] = CAL-85-1 cell line, compound A × partner
[7] = CAL-120 cell line, compound A × partner
[8] = CAL-148 cell line, compound A × partner
[9] = CAMA-1 cell line, compound A × partner
[10] = DU-4475 cell line, compound A × partner
[11] = EVSA-T cell line, compound A × partner
[12] = HCC1143 cell line, compound A × partner
[13] = MCF7 cells, Compound A × partner agent
[14] = MDA-MB-175-VII cells, Compound A × partner agent
[15] = MDA-MB-231 cells, Compound A × partner agent
[16] = MDA-MB-361 cells, Compound A × partner agent
[17] = MDA-MB-436 cells, Compound A × partner agent
[18] = MDA-MB-453 cells, Compound A × partner agent
[19] = MDA-MB-468 cells, Compound A × partner agent
[20] = SK-BR-3 cells, Compound A × partner agent
[21] = SUM159PT cells, combination of compound A with the named agent
[22] = T47D cells, combination of compound A with the named agent
[23] = ZR-75-1 cells, combination of compound A with the named agent
[24] = ZR-75-30 cells, combination of compound A with the named agent

CC(=O)O[C@@]12CO[C@@H]1C[C@H](O)[C@@]1(C)C(=O)[C@H](O)C3=C(C)[C@@H](OC(=O)[C@H](O)[C@@H](NC(=O)OC(C)(C)C)c4ccccc4)C[C@@](O)([C@@H](OC(=O)c4ccccc4)[C@H]21)C3(C)C [Docetaxel]
Bliss Volume [1]: 16.97
HSA volume [1]: 3.68
Loewe Volume [1]: 1.71
Synergy Score [1]: 7.58
Bliss Volume [2]: 27.23
HSA volume [2]: 21.05
Loewe Volume [2]: 19.90
Synergy Score [2]: 39.72
Bliss Volume [3]: 16.39
HSA volume [3]: 9.80
Loewe Volume [3]: 8.62
Synergy Score [3]: 14.51
Bliss Volume [4]: 22.57
HSA volume [4]: 22.13
Loewe Volume [4]: 22.04
Synergy Score [4]: 39.66
Bliss Volume [5]: 2.26
HSA volume [5]: 3.35
Loewe Volume [5]: 3.12
Synergy Score [5]: 4.88
Bliss Volume [6]: 13.68
HSA volume [6]: 11.86
Loewe Volume [6]: 11.10
Synergy Score [6]: 19.64
Bliss Volume [7]: 8.92
HSA volume [7]: 7.98
Loewe Volume [7]: 8.39
Synergy Score [7]: 11.63
Bliss Volume [8]: 15.94
HSA volume [8]: 13.90
Loewe Volume [8]: 12.92
Synergy Score [8]: 28.74
Bliss Volume [9]: 29.57
HSA volume [9]: 6.98
Loewe Volume [9]: 4.88
Synergy Score [9]: 13.30
Bliss Volume [10]: 19.28
HSA volume [10]: 13.68
Loewe Volume [10]: 12.74
Synergy Score [10]: 20.30
Bliss Volume [11]: 32.24
HSA volume [11]: 12.42
Loewe Volume [11]: 12.22
Synergy Score [11]: 24.87
Bliss Volume (HCC38, compound A × partner): 23.64
HSA volume (HCC38, compound A × partner): 16.36
Loewe Volume (HCC38, compound A × partner): 14.95
Synergy Score (HCC38, compound A × partner): 29.56
Bliss Volume (HCC70, compound A × partner): 25.33
HSA volume (HCC70, compound A × partner): 22.90
Loewe Volume (HCC70, compound A × partner): 20.81
Synergy Score (HCC70, compound A × partner): 39.82
Bliss Volume [12]: 11.00
HSA volume [12]: 9.41
Loewe Volume [12]: 8.32
Synergy Score [12]: 18.84
Bliss Volume (HCC1569, compound A × partner): 6.58
HSA volume (HCC1569, compound A × partner): 8.56
Loewe Volume (HCC1569, compound A × partner): 9.52
Synergy Score (HCC1569, compound A × partner): 11.65
Bliss Volume (HCC1806, compound A × partner): 17.46
HSA volume (HCC1806, compound A × partner): 12.45
Loewe Volume (HCC1806, compound A × partner): 12.66
Synergy Score (HCC1806, compound A × partner): 25.50
Bliss Volume (HCC1937, compound A × partner): 10.96
HSA volume (HCC1937, compound A × partner): 11.56
Loewe Volume (HCC1937, compound A × partner): 11.67
Synergy Score (HCC1937, compound A × partner): 11.60
Bliss Volume (HCC1954, compound A × partner): 25.28
HSA volume (HCC1954, compound A × partner): 14.25
Loewe Volume (HCC1954, compound A × partner): 12.73
Synergy Score (HCC1954, compound A × partner): 25.34
Bliss Volume (HCC2218, compound A × partner): 11.69
HSA volume (HCC2218, compound A × partner): 6.53
Loewe Volume (HCC2218, compound A × partner): 5.20
Synergy Score (HCC2218, compound A × partner): 10.71
Bliss Volume (HDQ-P1, compound A × partner): 7.85
HSA volume (HDQ-P1, compound A × partner): 8.96
Loewe Volume (HDQ-P1, compound A × partner): 8.67
Synergy Score (HDQ-P1, compound A × partner): 11.43
Bliss Volume (HMC-1-8, compound A × partner): 31.00
HSA volume (HMC-1-8, compound A × partner): 8.49
Loewe Volume (HMC-1-8, compound A × partner): 7.43
Synergy Score (HMC-1-8, compound A × partner): 16.44
Bliss Volume (JIMT-1, compound A × partner): 4.03
HSA volume (JIMT-1, compound A × partner): 4.64
Loewe Volume (JIMT-1, compound A × partner): 3.81
Synergy Score (JIMT-1, compound A × partner): 6.23
Bliss Volume (KPL-1, compound A × partner): 5.18
HSA volume (KPL-1, compound A × partner): 8.06
Loewe Volume (KPL-1, compound A × partner): 7.67
Synergy Score (KPL-1, compound A × partner): 10.20
Bliss Volume [13]: 14.35
HSA volume [13]: 11.99
Loewe Volume [13]: 11.64
Synergy Score [13]: 17.93
Bliss Volume [14]: 16.97
HSA volume [14]: 10.22
Loewe Volume [14]: 12.14
Synergy Score [14]: 15.31
Bliss Volume [15]: 5.15
HSA volume [15]: 7.49
Loewe Volume [15]: 6.89
Synergy Score [15]: 11.57
Bliss Volume [16]: −0.86
HSA volume [16]: −2.31
Loewe Volume [16]: −3.71
Synergy Score [16]: 4.61
Bliss Volume [17]: 1.49
HSA volume [17]: 1.67
Loewe Volume [17]: 1.48
Bliss Volume [18]: 30.81
HSA volume [18]: 22.87
Loewe Volume [18]: 21.87
Synergy Score [18]: 44.90
Bliss Volume [19]: 28.07
HSA volume [19]: 11.28
Loewe Volume [19]: 10.11
Synergy Score [19]: 20.73
Bliss Volume [20]: 14.70
HSA volume [20]: 4.18
Loewe Volume [20]: 2.95
Synergy Score [20]: 7.33
Bliss Volume [21]: 18.66
HSA volume [21]: 18.88
Loewe Volume [21]: 17.94
Synergy Score [21]: 33.03
Bliss Volume [22]: −1.55
HSA volume [22]: 2.30
Loewe Volume [22]: 1.76
Synergy Score [22]: 6.53
Bliss Volume [23]: 16.15
HSA volume [23]: 16.66
Loewe Volume [23]: 17.29
Synergy Score [23]: 25.42
Bliss Volume [24]: 6.48
HSA volume [24]: 3.70
Loewe Volume [24]: 2.62
Synergy Score [24]: 8.08
